The source of these data is US10537547B2, “Compositions favoring wound repair” (UNIVERSITÉ LAVAL, priority 2015, dated 2020).

The structures appear in SMILES notation.

In assay [1] the test system is tissue-engineered human corneas. The experiment in a line: Wound closure of punch-wounded tissue-engineered human corneas. Particulars: 8-mm punch wound; compounds in culture medium at 2x reported IC50 (GDC-0068 36 nM; C646 800 nM; SC79 10 μM along with C646 800 nM); monitored over 4 days; n=4. The format is cell-based. As for the experimental part: FIGS. 5A to 5C illustrate the pharmacological alteration of Akt and CREB on wound closure dynamic. (A) Left panel: Tissue-engineered human corneas (TEC) (four reconstructed corneas per condition) were wounded as in FIG. 2 and then maintained in culture medium supplemented with […] (36 nM, thin line), a pharmacological inhibitor of Akt phosphorylation, and C646 (800 nM, broken line), an inhibitor of CREB phosphorylation. Wounded corneas used as controls were exposed solely to the vehicle (DMSO, thick line). Wound closure was monitored over a 4-day period. Right panel: Measurement of wound surface remaining at each day using the ImageJ64 software (n=4). (B) Left panel: TECs were wounded as in (A) and maintained in culture medium containing C646 (800 nM) along with the AKT agonist SC79 (10 μM) (thin line) or DMSO (broken line). Wound closure was monitored as in (A). Right panel: Measurement of wound surface remaining at each day using the ImageJ64 software (n=4). (C) Composite image showing a complete view of the wounded TECs exposed either to the vehicle (DMSO) or pharmacological compounds (C646, GDC0068 or the combination of C646 and SC79) 4 days following corneal damage (sections were stained with Masson's trichrome; cells are pink and collagen is bluish). The wound margin created by the biopsy punch is indicated.
The tissue-engineered, two-layers 3D human corneas that have been used as a biomaterial were produced following the self-assembly approach (see FIG. 1). Briefly, corneal fibroblasts were seeded and cultured in fibroblast growth medium supplemented with 50 μg/ml ascorbic acid (Sigma, Oakville, Ont., Canada) for 35 days. Ascorbic acid allows fibroblasts to secrete and lay down their own ECM. After peeling from the flasks, two tissue sheets were superimposed to form a reconstructed stroma and were cultured for another week so that they could adhere to each other. […]
The wound healing of in vitro reconstructed cornea was studied. […] Wound healing was monitored daily with microphotographs. […]

The test system of a further assay is rabbit corneas. Briefly: Wound closure of rabbit corneas wounded with ethanol or N-heptanol combined with mechanical debridement. In kind it is in vivo, New Zealand white rabbits. Particulars: C646 10 μM applied 3-times/day to the eye, vs DMSO, n=4. The text has this: FIGS. 6A and 6B illustrate the impact of C646 on rabbit corneas wounded with either ethanol or N-heptanol combined to mechanical debridement. Rabbit corneas were wounded with ethanol (70%) or N-heptanol (100%) and mechanically debrided with a scalpel blade (crescent type). The rabbits were then divided into two groups: control corneas treated with DMSO or corneas treated with C646 (10 μm). n=4 for each conditions tested. (A) Fluorescein staining of corneas surgically wounded using either ethanol or N-heptanol combined with debridement using a crescent blade and treated with 10 μM C646. Wounded eyes were photographed using a slit lamp. (B) Graph representation of the remaining wounded corneal area (%) for each condition used in (A).
FIGS. 7A and 7B illustrate the impact of C646+SC79 on wounded rabbit corneas combined to mechanical debridement. Rabbit corneas were wounded with ethanol (70%) and mechanically debrided with a scalpel blade (crescent type). The rabbits were then divided into five groups: control corneas treated with DMSO, corneas treated with C646 (1 μM) and SC-79 (1 μM), corneas treated with C646 (1 μM) and SC-79 (10 μM), corneas treated with C646 (1 μM) and SC-79 (100 μM) and corneas treated with C646 (1 μm) and SC-79 (1 mM). n=4 for DMSO and n=5 for each remaining conditions tested. […]

The subject of a further assay is Akt. Particulars: cell based assays; cited from earlier work.
Another assay concerns mouse model of stroke. Particulars: cited from earlier work.

With `CC1=NN(c2ccc(C(=O)O)cc2)C(=O)C1=Cc1ccc(-c2cc(C)c(C)cc2[N+](=O)[O-])o1` [C646, 4-[4-[[5-(4,5-Dimethyl-2-nitrophenyl)-2-furanyl]methylene]-4,5-dihydro-3-methyl-5-oxo-1H-pyrazol-1-yl]benzoic acid], the “wound closure when compared to control (DMSO)” value in assay [1] is on record as “accelerated wound closure”. Also, the wound closing time result with rabbit corneas (ethanol (70%) injury combined with mechanical debridement) is “clear reduction in the wound closing time”. Also, the wound closure entry in the assay on rabbit corneas (n-heptanol (100%) injury combined with mechanical debridement) was “no significant impact on wound closure”.
For the molecule `CCOC(=O)C1=C(N)Oc2ccc(Cl)cc2C1C(C#N)C(=O)OCC` (stereo not shown) [SC-79, Ethyl-2-amino-6-chloro-4-(1-cyano-2-ethoxy-2-oxoethyl)-4H-chromene-3-carboxylate], the “wound closure when compared to control (DMSO)” value in assay [1] was “accelerated wound closure”. In addition, the “cytosolic Akt signaling” value in the assay with Akt is listed as “induces cytosolic Akt signaling”. Also, the neuronal death entry with mouse model of stroke was “prevents neuronal death”.
Regarding `CC(C)NC[C@@H](C(=O)N1CCN(c2ncnc3c2[C@H](C)C[C@H]3O)CC1)c1ccc(Cl)cc1` [GDC-0068], the “wound closure when compared to control (DMSO)” value in assay [1] was “delayed wound closure”.
